Measurements taken from US20100204203A1, “Chemical Compounds 637: Pyridopyrimidinediones as PDE4 Inhibitors” (priority 2007, published 2010).

These molecules were tested against recombinant Human Phosphodiesterase B2 (PDE4B2) (Homo sapiens, UniProt Q07343) (assay: Human Phosphodiesterase B2 Radiometric Assay (yttrium silicate SPA beads, [3H]cyclic AMP)). Settings: recombinant human PDE4B2, radiometric SPA assay, 8 nM [3H]cyclic AMP; read-out: PDE4B2 pIC50 (converted).
Assay type: biochemical
Summary of the method: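 Compounds were preincubated 30 min at 30 °C with 0.1 mg/mL PDE4B2 in 50 mM HEPES pH 7.5, 8.3 mM MgCl2, 1.7 mM EGTA, 0.01% Brij 35. Then 8 nM [3H]cAMP was added for 20 min, stopped with yttrium silicate SPA beads plus 18 mM ZnSO4 capturing product 5′AMP; pIC50 by curve fitting.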

recombinant Human Phosphodiesterase B2 (PDE4B2), sequence (Q07343 1-564 isoform Q07343-2): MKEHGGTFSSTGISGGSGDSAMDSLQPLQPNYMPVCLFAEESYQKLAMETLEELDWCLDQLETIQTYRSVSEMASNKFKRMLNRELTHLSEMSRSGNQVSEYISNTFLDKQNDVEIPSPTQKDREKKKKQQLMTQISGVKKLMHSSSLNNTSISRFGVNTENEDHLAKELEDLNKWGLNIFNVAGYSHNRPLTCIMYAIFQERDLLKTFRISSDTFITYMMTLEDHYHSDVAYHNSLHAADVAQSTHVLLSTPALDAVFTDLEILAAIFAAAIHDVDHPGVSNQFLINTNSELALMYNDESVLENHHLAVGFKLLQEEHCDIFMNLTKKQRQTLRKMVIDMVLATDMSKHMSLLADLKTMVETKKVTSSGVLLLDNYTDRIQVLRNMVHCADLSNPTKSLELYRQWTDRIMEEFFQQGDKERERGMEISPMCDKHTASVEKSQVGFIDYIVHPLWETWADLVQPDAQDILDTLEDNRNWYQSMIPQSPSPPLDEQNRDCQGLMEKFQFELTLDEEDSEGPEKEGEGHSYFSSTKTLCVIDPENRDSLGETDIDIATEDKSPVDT

| Compound | IC50 |
| --- | --- |
| O=C(N[C@H]1CC[C@@H](n2c(=O)c3cc(F)cnc3n(-c3cccc(-c4ccc(CN5CCC(N6CCCCC6)CC5)cc4)c3)c2=O)CC1)c1cnc2ccccc2n1 [Example 296, N-{cis-4-[1-[4′-(1,4′-bipiperidin-1′-ylmethyl)biphenyl-3-yl]-6-fluoro-2,4-dioxo-1,4-dihydropyrido[2,3-d]pyrimidin-3(2H)-yl]cyclohexyl} quinoxaline-2-carboxamide] | 0.01 nM |
| O=C(N[C@H]1CC[C@@H](n2c(=O)c3cc(F)cnc3n(-c3cccc(-c4ccc(CN5CCSCC5)cc4)c3)c2=O)CC1)c1cn2c(n1)CCCC2 [Example 135, N-{cis-4-[6-fluoro-2,4-dioxo-1-[4′-(thiomorpholin-4-ylmethyl)biphenyl-3-yl]-1,4-dihydropyrido[2,3-d]pyrimidin-3(2H)-yl]cyclohexyl}-5,6,7,8-tetrahydroimidazo[1,2-a]pyridine-2-carboxamide] | 0.00316 nM |
| O=c1c2cc(F)cnc2n(-c2cccc(-c3ccc(O)cc3CN3CCCCC3)c2)c(=O)n1[C@H]1CC[C@@H](NCc2cn3cc(F)ccc3n2)CC1 [Example 255, 6-Fluoro-3-(cis-4-{[(6-fluoroimidazo[1,2-c]pyridin-2-yl)methyl]amino}cyclohexyl)-1-[4′-hydroxy-2′-(piperidin-1-ylmethyl)biphenyl-3-yl]pyrido[2,3-d]pyrimidine-2,4(1H,3H)-dione] | 0.126 nM |
| CC(C)(C)OC(=O)NCc1cccc(-c2cccc(-n3c(=O)n([C@H]4CC[C@@H](NC(=O)c5cn6cc(F)ccc6n5)CC4)c(=O)c4cc(F)cnc43)c2)c1 [Example 18, tert-butyl ({3′-[6-fluoro-3-(cis-4-{[(6-fluoroimidazo[1,2-a]pyridin-2-yl)carbonyl]amino}cyclohexyl)-2,4-dioxo-3,4-dihydropyrido[2,3-d]pyrimidin-1(2H)-yl]biphenyl-3-yl}methyl)carbamate.] | 0.0631 nM |
| CN(C)Cc1cc(F)ccc1-c1cccc(-n2c(=O)n([C@H]3CC[C@@H](NC(=O)c4cn5cc(F)ccc5n4)CC3)c(=O)c3cc(F)cnc32)c1 [Example 273, N-{cis-4-[1-{2′-[(Dimethylamino)methyl]-4′-fluorobiphenyl-3-yl}-6-fluoro-2,4-dioxo-1,4-dihydropyrido[2,3-d]pyrimidin-3(2H)-yl]cyclohexyl}-6-fluoroimidazo[1,2-a]pyridine-2-carboxamide] | 0.00398 nM |
| C[C@H](CO)NCc1ccc(-c2cccc(-n3c(=O)n([C@H]4CC[C@@H](NC(=O)c5cn6cc(F)ccc6n5)CC4)c(=O)c4cc(F)cnc43)c2)cc1 [Example 59] | 0.158 nM |
| CN(C)Cc1ccc(-c2cccc(-n3c(=O)n([C@H]4CC[C@@H](NC(=O)c5cn6cc(F)ccc6n5)CC4)c(=O)c4cc(F)cnc43)c2)cc1 [Example 12, N-{cis-4-[1-{4′-[(dimethylamino)methyl]biphenyl-3-yl}-6-fluoro-2,4-dioxo-1,4-dihydropyrido[2,3-d]pyrimidin-3(2H)-yl]cyclohexyl}-6-fluoroimidazo[1,2-a]pyridine-2-carboxamide] | 0.1 nM |
| Cc1nc(C(=O)N[C@H]2CC[C@@H](n3c(=O)c4cc(F)cnc4n(-c4cccc(-c5ccc(CN6CCCNCC6)cc5)c4)c3=O)CC2)cs1 [Example 349, N-{cis-4-[1-[4′-(1,4-diazepan-1-ylmethyl)biphenyl-3-yl]-6-fluoro-2,4-dioxo-1,4-dihydropyrido[2,3-d]pyrimidin-3(2H)-yl]cyclohexyl}-2-methyl-1,3-thiazole-4-carboxamide] | 0.02 nM |
| O=C(N[C@H]1CC[C@@H](n2c(=O)c3cc(F)cnc3n(-c3cccc(-c4ccccc4)c3)c2=O)CC1)c1cn2cc(F)ccc2n1 [Example 1, N-[cis-4-(1-biphenyl-3-yl-6-fluoro-2,4-dioxo-1,4-dihydropyrido[2,3-d]pyrimidin-3(2H)-yl)cyclohexyl]-6-fluoroimidazo[1,2-c]pyridine-2-carboxamide] | 0.0251 nM |
| O=C1CCN(Cc2cc(O)ccc2-c2cccc(-n3c(=O)n([C@H]4CC[C@@H](NCc5cn6cc(F)ccc6n5)CC4)c(=O)c4cc(F)cnc43)c2)CCN1 [Example 375, 6-fluoro-3-(cis-4-{[(6-fluoroimidazo[1,2-a]pyridin-2-yl)methyl]amino}cyclohexyl)-1-{4′-hydroxy-2′-[(5-oxo-1,4-diazepan-1-yl)methyl]biphenyl-3-yl}pyrido[2,3-d]pyrimidine-2,4(1H,3H)-dione] | 0.0126 nM |
| O=C(Nc1ccccc1)c1cccc(-n2c(=O)n([C@H]3CC[C@@H](NC(=O)c4cn5ccccc5n4)CC3)c(=O)c3cc(F)cnc32)c1 [Example 4, N-{cis-4-[1-[3-(anilinocarbonyl)phenyl]-6-fluoro-2,4-dioxo-1,4-dihydropyrido[2,3-d]pyrimidin-3(2H)-yl]cyclohexyl}imidazo[1,2-c]pyridine-2-carboxamide] | 0.0398 nM |
| O=C(O)c1ccc(-c2cccc(-n3c(=O)n([C@H]4CC[C@@H](NC(=O)c5cn6cc(F)ccc6n5)CC4)c(=O)c4cc(F)cnc43)c2)cc1 [Example 27, 3′-[6-fiuoro-3-(cis-4-{[(6-fluoroimidazo[1,2-a]pyridin-2-yl)carbonyl]amino}cyclohexyl)-2,4-dioxo-3,4-dihydropyrido[2,3-d]pyrimidin-1(2H)-yl]biphenyl-4-carboxylic acid] | 0.251 nM |

Continued, values first:

| IC50 | Compound |
| --- | --- |
| 0.0126 nM | CCCN1CCN(Cc2ccc(-c3cccc(-n4c(=O)n([C@H]5CC[C@@H](NC(=O)C6(N(C)C)CC6)CC5)c(=O)c5cc(F)cnc54)c3)cc2)CC1 [Example 208, 1-(dimethylamino)-N-{cis-4-[6-fluoro-2,4-dioxo-1-{4′-[(4-propylpiperazin-1-yl)methyl]biphenyl-3-yl}-1,4-dihydropyrido[2,3-d]pyrimidin-3(2H)-yl]cyclohexyl} cyclopropanecarboxamide] |
| 0.0794 nM | CCN(CC)CC(=O)N[C@H]1CC[C@@H](n2c(=O)c3cc(F)cnc3n(-c3cccc(-c4ccc(CN5CCN(C(C)C)CC5)cc4)c3)c2=O)CC1 [Example 241, N^2,N^2-diethyl-N-{cis-4-[6-fluoro-1-{4′-[(4-isopropylpiperazin-1-yl)methyl]biphenyl-3-yl}-2,4-dioxo-1,4-dihydro-pyrido[2,3-d]pyrimidin-3(2H)-yl]cyclohexyl} glycinamide] |
| 0.0316 nM | CN1CCCN(Cc2ccc(-c3cccc(-n4c(=O)n([C@H]5CC[C@@H](NC(=O)CN6CCCCC6)CC5)c(=O)c5cc(F)cnc54)c3)cc2)CC1 [Example 292, N-{cis-4-[6-fluoro-1-{4′-[(4-methyl-1,4-diazepan-1-yl)methyl]biphenyl-3-yl}-2,4-dioxo-1,4-dihydropyrido[2,3-d]pyrimidin-3(2H)-yl]cyclohexyl}-2-piperidin-1-ylacetamide] |
| 0.0631 nM | Cc1cccc(C(=O)N[C@H]2CC[C@@H](n3c(=O)c4cc(F)cnc4n(-c4cccc(-c5ccc(CN6CCCN(C)CC6)cc5)c4)c3=O)CC2)n1 [Example 308, N-{cis-4-[6-fluoro-1-{4′-[(4-methyl-1,4-diazepan-1-yl)methyl]biphenyl-3-yl}-2,4-dioxo-1,4-dihydropyrido[2,3-d]pyrimidin-3 (2H)-yl]cyclohexyl}-6-methylpyridine-2-carboxamide] |
| 0.2 nM | CN1CCCN(Cc2ccc(-c3cccc(-n4c(=O)n([C@H]5CC[C@@H](NC(=O)[C@@H](N)Cc6ccccc6)CC5)c(=O)c5cc(F)cnc54)c3)cc2)CC1 [Example 312, N-{cis-4-[6-fluoro-1-{4′-[(4-methyl-1,4-diazepan-1-yl)methyl]biphenyl-3-yl}-2,4-dioxo-1,4-dihydropyrido[2,3-d]pyrimidin-3(2H)-yl]cyclohexyl}-L-phenylalaninamide] |
